Assay results from article PMC12860872, “Preclinical evaluation of DOTAGA.Glu.(FAPI)2 and DO3A.Glu.(FAPI)2 as theranostics with human dosimetry extrapolation to lutetium-177 and terbium-161 analogs” (European Journal of Nuclear Medicine and Molecular Imaging, 2025).
Where “and” joins values, the source holds several entries; their conditions need not be identical. Equal entries are not always repeated.

How the values were obtained:
PC3-mice = assay: Organ clearance biological half-lives from biodistribution data; assay type: in vivo, mouse
Protocol: Blood samples were collected from the facial vein at 1, 3, 5, 7, 10, 15, 20, 30, 45, 60, 240, and 1440 min p.i., weighed, and measured for radioactivity using a γ-counter. Results were expressed as % I.A./g of blood and plotted over time. The initial and terminal half-lives were determined using Two-Phase Decay Model. The biological half-lives of selected organs were calculated from the biodistribution data using One-Phase Decay Model (GraphPad Prism 8).

[1] = Extrapolated human dosimetry (OLINDA/EXM, ICRP-89 phantoms); set-up: TIAC average pancreas: unit not given beside the values; TIAC average stomach / TIAC average Small Intestine / TIAC average Left Column / TIAC average Rectum / TIAC average adrenal / TIAC average bone / TIAC average Red marrow / TIAC average salivary glands / TIAC average ROB / TIAC average Total Frac IA / TIAC average heart content / TIAC average heart wall / TIAC average liver / TIAC average spleen / TIAC average lung / TIAC average kidney: unit not given here
Protocol: To address inter-animal variability, the TIACs for each source organ were calculated from both the mean nTACs and the nTACs obtainend from fitting the mean ± 1 standard deviation (SD) of the normalized time-activity data, providing upper and lower bounds.
The mice-to-human TIAC extrapolation accounted for species-specific differences in relative source organ masses, m(organ), as compared to the total body weight (WB), for the mice (m) and human (h) models respectively.
(§1) The human organ masses, m(organ)h, were obtained from ICRP-89 adult male and female reference phantoms, while the murine organ masses, m(organ)m, were derived from the standard MOBY mouse model. The extrapolated human TIACs, TIACh were entered in the OLINDA/EXM software to compute the absorbed doses to target organs and the effective dose for adult male, female, and gender-averaged human models. […]
The TIACs, for [177Lu]Lu-DOTAGA.Glu.(FAPI)2 and [177Lu]Lu-DO3A.Glu.(FAPI)2, were determined by time integration of the nTACs. To account for the inter-animal variability, the TIACs for each source organ were calculated using both the mean nTACs and the nTACs obtainend from fitting the mean ±1 standard deviation (SD) of the normalized time-activity data. This approach provided the upper and the lower bounds for the estimated TIACs.
The mice-to-human TIAC extrapolation was obtained considering the different (species-specific) relative source organ masses, m(organ), as compared to the total body weight (WB), for the mice (m) and human (h) models respectively.
as §1, with “the” for “ICRP-89”, “models phantoms defined in ICRP-89,” for “phantoms,”, “TIACs values, TIACh, for each source organ” for “TIACs, TIACh”, “input into the kinetic module of” for “entered in”, “software (version 2.1, HERMES Medical Solutions AB, Stockholm, Sweden)” for “software”

[2] = PC3-mice, One-Phase Decay Model
[3] = ICRP 89 Adult Female, extrapolated
[4] = ICRP 89 Adult Male, extrapolated
[5] = human extrapolation, male-female range

Bone clearance half-life, 95% confidence interval (PC3-mice; [2]): 27.60 to 33.77 h | Kidney clearance half-life, 95% confidence interval (PC3-mice; [2]): 23.41 to 38.84 h | Liver clearance half-life, 95% confidence interval (PC3-mice; [2]): 70.61 to 362.5 h | Pancreas clearance half-life, 95% confidence interval (PC3-mice; [2]): 16.87 to 39.95 h | Salivary glands clearance half-life, 95% confidence interval (PC3-mice; [2]): 12.06 to 34.90 h | Tumor clearance half-life, 95% confidence interval (PC3-mice; [2]): 19.85 to 32.80 h | tumor biological half-life (PC3-mice; PC3-tumors): 25.5 h | Absorbed dose (AD average) Adrenals [1, 3]: 1.46E-02 mGy/Mbq | Absorbed dose (AD average) Brain [1, 3]: 2.94E-02 mGy/Mbq | Absorbed dose (AD average) Breasts [1, 3]: 2.88E-02 mGy/Mbq | Absorbed dose (AD average) Esophagus [1, 3]: 3.06E-02 mGy/Mbq | Absorbed dose (AD average) Eyes [1, 3]: 2.94E-02 mGy/Mbq | Absorbed dose (AD average) Gallbladder Wall [1, 3]: 3.30E-02 mGy/Mbq | Absorbed dose (AD average) Heart Wall [1, 3]: 4.42E-02 mGy/Mbq | Absorbed dose (AD average) Left colon [1, 3]: 1.05E-01 mGy/Mbq | Absorbed dose (AD average) Ovaries [1, 3]: 3.09E-02 mGy/Mbq | Absorbed dose (AD average) Rectum [1, 3]: 1.07E-01 mGy/Mbq | Absorbed dose (AD average) Right colon [1, 3]: 6.88E-02 mGy/Mbq | Absorbed dose (AD average) Stomach Wall [1, 3]: 4.24E-02 mGy/Mbq | Absorbed dose (AD average) Thymus [1, 3]: 3.04E-02 mGy/Mbq | Absorbed dose (AD average) Thyroid [1, 3]: 2.95E-02 mGy/Mbq | Absorbed dose (AD average) Urinary Bladder Wall [1, 3]: 3.05E-02 mGy/Mbq | Absorbed dose (AD average) Uterus [1, 3]: 3.10E-02 mGy/Mbq | Effective dose (average) [1, 3]: 4.71E-02 | Absorbed dose (AD average) Adrenals [1, 4]: 1.17E-02 mGy/Mbq | Absorbed dose (AD average) Brain [1, 4]: 1.98E-02 mGy/Mbq | Absorbed dose (AD average) Esophagus [1, 4]: 2.11E-02 mGy/Mbq | Absorbed dose (AD average) Eyes [1, 4]: 1.97E-02 mGy/Mbq | Absorbed dose (AD average) Gallbladder Wall [1, 4]: 2.49E-02 mGy/Mbq | Absorbed dose (AD average) Heart Wall [1, 4]: 3.66E-02 mGy/Mbq | Absorbed dose (AD average) Left colon [1, 4]: 8.56E-02 mGy/Mbq | Absorbed dose (AD average) Prostate [1, 4]: 2.04E-02 mGy/Mbq | Absorbed dose (AD average) Rectum [1, 4]: 8.54E-02 mGy/Mbq | Absorbed dose (AD average) Right colon [1, 4]: 5.39E-02 mGy/Mbq | Absorbed dose (AD average) Stomach Wall [1, 4]: 3.05E-02 mGy/Mbq | Absorbed dose (AD average) Testes [1, 4]: 1.95E-02 mGy/Mbq | Absorbed dose (AD average) Thymus [1, 4]: 2.03E-02 mGy/Mbq | Absorbed dose (AD average) Thyroid [1, 4]: 2.02E-02 mGy/Mbq | Absorbed dose (AD average) Urinary Bladder Wall [1, 4]: 2.03E-02 mGy/Mbq | Effective dose (average) ([1]; ICRP 89 Adult Male, extrapolated, in mSv/MBq (unit assumed)): 3.40E-02 | absorbed dose kidneys [1, 5]: 0.04–0.05 Gy/GBq | absorbed dose liver [1, 5]: 0.16–0.20 Gy/GBq | absorbed dose salivary glands [1, 5]: 0.10–0.13 Gy/GBq | total body and effective doses [1, 5]: 0.033–0.044 Gy/GBq | TIAC average Left Column ([1]; human female, extrapolated): 0.1373 | TIAC average ROB ([1]; human female, extrapolated): 18.6076 | TIAC average Rectum ([1]; human female, extrapolated): 0.1420 | TIAC average Red marrow ([1]; human female, extrapolated): 0.2030 | TIAC average Small Intestine ([1]; human female, extrapolated): 0.1803 | TIAC average Total Frac IA ([1]; human female, extrapolated): 25.6850 | TIAC average adrenal ([1]; human female, extrapolated): 0.0011 | TIAC average bone ([1]; human female, extrapolated): 4.9073 | TIAC average heart content ([1]; human female, extrapolated): 0.0834 | TIAC average heart wall ([1]; human female, extrapolated): 0.0889 | TIAC average kidney ([1]; human female, extrapolated): 0.1445 | TIAC average liver ([1]; human female, extrapolated): 3.1244 | TIAC average lung ([1]; human female, extrapolated): 0.4651 | TIAC average pancreas ([1]; human female, extrapolated): 0.0460 | TIAC average salivary glands ([1]; human female, extrapolated): 0.1012 | TIAC average spleen ([1]; human female, extrapolated): 0.0480 | TIAC average stomach ([1]; human female, extrapolated): 0.0626 | TIAC average Left Column ([1]; human male, extrapolated): 0.1129 | TIAC average ROB ([1]; human male, extrapolated): 15.0586 | TIAC average Rectum ([1]; human male, extrapolated): 0.1129 | TIAC average Red marrow ([1]; human male, extrapolated): 0.2169 | TIAC average Small Intestine ([1]; human male, extrapolated): 0.1684 | TIAC average Total Frac IA ([1]; human male, extrapolated): 25.6850 | TIAC average adrenal ([1]; human male, extrapolated): 0.0009 | TIAC average bone ([1]; human male, extrapolated): 5.5459 | TIAC average heart content ([1]; human male, extrapolated): 0.0945 | TIAC average heart wall ([1]; human male, extrapolated): 0.0965 | TIAC average kidney ([1]; human male, extrapolated): 0.1339 | TIAC average liver ([1]; human male, extrapolated): 3.3017 | TIAC average lung ([1]; human male, extrapolated): 0.4829 | TIAC average pancreas ([1]; human male, extrapolated): 0.0441 | TIAC average salivary glands ([1]; human male, extrapolated): 0.1010 | TIAC average spleen ([1]; human male, extrapolated): 0.0456 | TIAC average stomach ([1]; human male, extrapolated): 0.0557
SMILES: N#C[C@@H]1CC(F)(F)CN1C(=O)CNC(=O)c1ccnc2ccc(OCCCCNC(=O)CC[C@H](NC(=O)CCC(C(=O)O)N3CCN(CC(=O)[O-])CCN(CC(=O)[O-])CCN(CC(=O)[O-])CC3)C(=O)NCCCCOc3ccc4nccc(C(=O)NCC(=O)N5CC(F)(F)C[C@H]5C#N)c4c3)cc12.[177Lu+3] (some centres unmarked) [[^177Lu]Lu-DOTAGA.Glu.(FAPI)2]
Absorbed dose (AD average) Kidneys [1, 3]: 4.97E-02 ± 0.002 mGy/Mbq and 4.97E-02 mGy/Mbq | Absorbed dose (AD average) Liver [1, 3]: 2.00E-01 ± 0.02 mGy/Mbq and 2.00E-01 mGy/Mbq | Absorbed dose (AD average) Lungs [1, 3]: 4.59E-02 ± 0.004 mGy/Mbq and 4.59E-02 mGy/Mbq | Absorbed dose (AD average) Osteogenic Cells [1, 3]: 8.92E-02 ± 0.01 mGy/Mbq and 8.92E-02 mGy/Mbq | Absorbed dose (AD average) Pancreas [1, 3]: 3.90E-02 ± 0.002 mGy/Mbq and 3.90E-02 mGy/Mbq | Absorbed dose (AD average) Red Marrow [1, 3]: 3.24E-02 ± 0.003 mGy/Mbq and 3.24E-02 mGy/Mbq | Absorbed dose (AD average) Salivary Glands [1, 3]: 1.26E-01 ± 0.004 mGy/Mbq and 1.26E-01 mGy/Mbq | Absorbed dose (AD average) Small Intestine [1, 3]: 5.84E-02 ± 0.02 mGy/Mbq and 5.84E-02 mGy/Mbq | Absorbed dose (AD average) Spleen [1, 3]: 3.53E-02 ± 0.01 mGy/Mbq and 3.53E-02 mGy/Mbq | Absorbed dose (AD average) Total Body [1, 3]: 4.42E-02 ± 0.01 mGy/Mbq and 4.42E-02 mGy/Mbq | Absorbed dose (AD average) Kidneys [1, 4]: 4.08E-02 ± 0.002 mGy/Mbq and 4.08E-02 mGy/Mbq | Absorbed dose (AD average) Liver [1, 4]: 1.64E-01 ± 0.01 mGy/Mbq and 1.64E-01 mGy/Mbq | Absorbed dose (AD average) Lungs [1, 4]: 3.74E-02 ± 0.003 mGy/Mbq and 3.74E-02 mGy/Mbq | Absorbed dose (AD average) Osteogenic Cells [1, 4]: 9.26E-02 ± 0.01 mGy/Mbq and 9.26E-02 mGy/Mbq | Absorbed dose (AD average) Pancreas [1, 4]: 3.11E-02 ± 0.002 mGy/Mbq and 3.11E-02 mGy/Mbq | Absorbed dose (AD average) Red Marrow [1, 4]: 2.38E-02 ± 0.002 mGy/Mbq and 2.38E-02 mGy/Mbq | Absorbed dose (AD average) Salivary Glands [1, 4]: 1.03E-01 ± 0.004 mGy/Mbq and 1.03E-01 mGy/Mbq | Absorbed dose (AD average) Small Intestine [1, 4]: 4.17E-02 ± 0.01 mGy/Mbq and 4.17E-02 mGy/Mbq | Absorbed dose (AD average) Spleen [1, 4]: 2.87E-02 ± 0.01 mGy/Mbq and 2.87E-02 mGy/Mbq | Absorbed dose (AD average) Total Body [1, 4]: 3.25E-02 ± 0.003 mGy/Mbq and 3.25E-02 mGy/Mbq
